Read-outs that look alike come from different tables or passages of the source.
Tests used:
[1] = Approximate retention times in oral tissues
Text: The approximate retention times in oral tissues of six alkaloids found in extracts from Sanguinaria canadensis is shown in Table IV.

[2] = Visual plaque disclosure scoring in healthy volunteers (Table I); type: in vivo; settings: for Mean Plaque Area Score, 1 Hour later / Mean Plaque Area Score, Baseline: visual assessment
Procedure: Sanguinarine chloride was compared to two standard disclosing dyes, erythrosine and sodium fluorescein. At weekly interval healthy volunteers underwent a 12-24 hour, no oral hygiene period. Subjects then used one of the following: erythrosine, sodium flourescein, or sanguinarine chloride. Subjects rinsed two times with 15 ml. of the rinse, while the erythrosine and sodium fluorescein were used according to customary practice. Color was evaluated under ambient light after erythrosine, under ambient light for sodium fluorescein, and under longwave UV fluorescent light for sanguinarine. The color was scored for location, amount, and area.
All of the disclosing agents colored soft dental deposits at gingival margins and at the dorsal surface of the tongue. […] Mean values of plaque were measured for all disclosants.
(§1) This was the oral rinse used for the tests described in Tables I, II, and III.

[3] = tested on: human dental plaque forming microorganisms; test: Reduction of dental plaque / inactivation of plaque forming microorganisms in vitro; type: cell-based
[4] = tested on: variety of microorganism; test: Antimicrobial properties (general statement); type: cell-based
[5] = In vivo plaque retention of sanguinarine (HPLC)
Text: as §1

[6] = type: in vivo
Text: This would indicate that the retention of sanguinarine in plaque may be responsible for its clinical effectiveness in plaque assays, and that plaque may serve as a reservoir for sanguinarine.
as §1

[7] = alkaloids found in extracts from Sanguinaria canadensis
[8] = human, in vivo, po, In Vivo Plaque Retention of Sanguinarine

SMILES | Approximate Retention time (in oral tissues) [1, 7] [min] | Mean Plaque Area Score, 1 Hour later [2] | Mean Plaque Area Score, Baseline [2] | further results
COc1ccc2c(c[n+](C)c3c4cc5c(cc4ccc23)OCO5)c1OC [Chelerythrine] |  |  |  | Approximate Retention time (in oral tissues) [1]: 16.5 to 17.0 min
COc1cc(OC)c2c(c[n+](C)c3c4cc5c(cc4ccc23)OCO5)c1OC [Chelilutine] | 15.5 to 16.0 |  |  | 
COc1cc2c(c3c[n+](C)c4c5cc6c(cc5ccc4c13)OCO6)OCO2 [Chelirubine] | ~7.5 |  |  | 
O=C1OC2(c3ccccc31)c1cc(I)c(O)c(I)c1Oc1c2cc(I)c(O)c1I [Erythrosine, reference compound] |  | 2.18 ± 0.5 | 2.86 ± 0.43 | 
COc1cc2ccc3c4c(OC)cc(OC)c(OC)c4c[n+](C)c3c2cc1OC [Sanguilutine] | 18.5 to 19.0 |  |  | 
C[n+]1cc2c3c(ccc2c2ccc4cc5c(cc4c21)OCO5)OCO3 [Sanguinarine chloride] |  | 2.86 ± 0.26 | 2.87 ± 0.23 | plaque disclosure ([2]; sanguinarine chloride mouthwash): disclosed plaque effectively; duration of disclosure ([2]; versus erythrosine and sodium fluorescein): lasted significantly longer than for the other two disclosing dyes; killing at 25 µg/mL ([3]; Homo sapiens, 25 micrograms per milliliter, read-out: reduction of dental plaque by inactivating plaque forming microorganisms): 100%; comparison with chlorhexidine in inhibition of human dental plaque forming microorganisms ([3]; in vitro, versus chlorhexidine (Hibitane)): compated favorably in vitro with chlorhexidine; antimicrobial properties [4]: strong antimicrobial properties
C[n+]1cc2c3c(ccc2c2ccc4cc5c(cc4c21)OCO5)OCO3 [Sanguinarine] | 9.5 to 10.0 |  |  | level in plaque versus in vitro minimum inhibitory concentrations ([5]; HPLC, plaque): much higher in vitro minimum inhibitory concentrations; In Vivo Plaque Retention of Sanguinarine ([5]; human, in vivo, po, 1 h): 46 ug/g of wet plaque; concentration at 1 h [5, 8]: 56000 ng/g; concentration at 2 h [5, 8]: 27000 ng/g; levels in saliva relative to anti-glycolytic effect [6]: high enough to exert an anti-glycolytic effect on saliva
COc1cc2ccc3c4c(OC)cc5c(c4c[n+](C)c3c2cc1OC)OCO5 [Sanguirubine] | 12.5 to 13.0 |  |  | 
O=C1OC2(c3ccc(O)cc3Oc3cc(O)ccc32)c2ccccc21 [Sodium Fluorescein, reference compound] |  | 1.74 ± 0.45 | 2.84 ± 0.22 | 

— patent publication US4590061A, “Antimicrobial plaque disclosing agent” (priority 1985, dated 1986)
